{
  "source": "PubChem BioAssay AID1259409",
  "about": "(Chemical Carcinogenesis Research Information System (CCRIS), 2018)",
  "origin": "cited, not measured here",
  "test_system": "rodent chemically induced tumor inhibition, incidence and multiplicity",
  "test": "CCRIS tumor inhibitor studies",
  "conditions": "Dose [Inhibitor]: 0",
  "data": [
    {"smiles": "C=Cc1ccc2ccc3cccc4ccc1c2c34", "values": [
      {"measurement": "tumour outcome (control, treated, inhibition, significance)", "setting": "Carcinogen: 7,12-DIMETHYLBENZ[A]ANTHRACENE, 57-97-6, 44 NMOL IN 0.2 ML ACETONE APPLIED TO BACK ONCE 5 MIN PRIOR TO CARCINOGEN DOSE (STUDY DURATION: 26 WK), Route [Inhibitor]: DERMAL, Species: MOUSE, Strain/Sex: SENCAR/FEMALE, Target Tissue: Type of Lesion: SKIN: PAPILLOMA, Dose [Carcinogen]: 10 NMOL IN 0.2 ML ACETONE APPLIED TO BACK ONCE.", "result": "100%, 100%, 0%, not significant"},
      {"measurement": "tumour outcome (control, treated, inhibition, significance)", "setting": "Carcinogen: 7,12-DIMETHYLBENZ[A]ANTHRACENE, 57-97-6, 440 NMOL IN 0.2 ML ACETONE APPLIED TO BACK ONCE 5 MIN PRIOR TO CARCINOGEN DOSE (STUDY DURATION: 26 WK), Route [Inhibitor]: DERMAL, Species: MOUSE, Strain/Sex: SENCAR/FEMALE, Target Tissue: Type of Lesion: SKIN: PAPILLOMA, Dose [Carcinogen]: 10 NMOL IN 0.2 ML ACETONE APPLIED TO BACK ONCE.", "result": "100%, 92%, 8%, not calculated"},
      {"measurement": "tumour outcome (control, treated, inhibition, significance)", "setting": "Carcinogen: 7,12-DIMETHYLBENZ[A]ANTHRACENE, 57-97-6, 4400 NMOL IN 0.2 ML ACETONE APPLIED TO BACK ONCE 5 MIN PRIOR TO CARCINOGEN DOSE (STUDY DURATION: 20 WK), Route [Inhibitor]: DERMAL, Species: MOUSE, Strain/Sex: SENCAR/FEMALE, Target Tissue: Type of Lesion: SKIN: PAPILLOMA, Dose [Carcinogen]: 10 NMOL IN 0.2 ML ACETONE APPLIED TO BACK ONCE.", "result": "100%, 68%, 32%, not calculated"},
      {"measurement": "tumour outcome (control, treated, inhibition, significance)", "setting": "Carcinogen: 7,12-DIMETHYLBENZ[A]ANTHRACENE, 57-97-6, 4400 NMOL IN 0.2 ML ACETONE APPLIED TO BACK ONCE 5 MIN PRIOR TO CARCINOGEN DOSE (STUDY DURATION: 26 WK), Route [Inhibitor]: DERMAL, Species: MOUSE, Strain/Sex: SENCAR/FEMALE, Target Tissue: Type of Lesion: SKIN: PAPILLOMA, Dose [Carcinogen]: 10 NMOL IN 0.2 ML ACETONE APPLIED TO BACK ONCE.", "result": "100%, 79%, 21%, not calculated"},
      {"measurement": "tumour outcome (control, treated, inhibition, significance)", "setting": "Carcinogen: 7,12-DIMETHYLBENZ[A]ANTHRACENE, 57-97-6, 44000 NMOL IN 0.2 ML ACETONE APPLIED TO BACK ONCE 5 MIN PRIOR TO CARCINOGEN DOSE (STUDY DURATION: 20 WK), Route [Inhibitor]: DERMAL, Species: MOUSE, Strain/Sex: SENCAR/FEMALE, Target Tissue: Type of Lesion: SKIN: PAPILLOMA, Dose [Carcinogen]: 10 NMOL IN 0.2 ML ACETONE APPLIED TO BACK ONCE.", "result": "100%, 24%, 76%, not calculated"},
      {"measurement": "tumour outcome (control, treated, inhibition, significance)", "setting": "Carcinogen: BENZO[A]PYRENE, 50-32-8, 2200 NMOL IN 0.2 ML ACETONE APPLIED TO BACK ONCE 5 MIN PRIOR TO CARCINOGEN DOSE (STUDY DURATION: 26 WK), Route [Inhibitor]: DERMAL, Species: MOUSE, Strain/Sex: SENCAR/FEMALE, Target Tissue: Type of Lesion: SKIN: PAPILLOMA, Dose [Carcinogen]: 200 NMOL IN 0.2 ML ACETONE APPLIED TO BACK ONCE.", "result": "100%, 95%, 5%, not calculated"},
      {"measurement": "tumour outcome (control, treated, inhibition, significance)", "setting": "Carcinogen: BENZO[A]PYRENE, 50-32-8, 4400 NMOL IN 0.2 ML ACETONE APPLIED TO BACK ONCE 5 MIN PRIOR TO CARCINOGEN DOSE (STUDY DURATION: 20 WK), Route [Inhibitor]: DERMAL, Species: MOUSE, Strain/Sex: SENCAR/FEMALE, Target Tissue: Type of Lesion: SKIN: PAPILLOMA, Dose [Carcinogen]: 200 NMOL IN 0.2 ML ACETONE APPLIED TO BACK ONCE., Promoter: PHORBOLMYRISTATE ACETATE, 16561-29-8", "result": "75%, 64%, 15%, not calculated"},
      {"measurement": "tumour outcome (control, treated, inhibition, significance)", "setting": "Carcinogen: BENZO[A]PYRENE, 50-32-8, 22000 NMOL IN 0.2 ML ACETONE APPLIED TO BACK ONCE 5 MIN PRIOR TO CARCINOGEN DOSE (STUDY DURATION: 26 WK), Route [Inhibitor]: DERMAL, Species: MOUSE, Strain/Sex: SENCAR/FEMALE, Target Tissue: Type of Lesion: SKIN: PAPILLOMA, Dose [Carcinogen]: 200 NMOL IN 0.2 ML ACETONE APPLIED TO BACK ONCE.", "result": "100%, 59%, 41%, not calculated"},
      {"measurement": "tumour outcome (control, treated, inhibition, significance)", "setting": "Carcinogen: BENZO[A]PYRENE, 50-32-8, 44000 NMOL IN 0.2 ML ACETONE APPLIED TO BACK ONCE 5 MIN PRIOR TO CARCINOGEN DOSE (STUDY DURATION: 20 WK), Route [Inhibitor]: DERMAL, Species: MOUSE, Strain/Sex: SENCAR/FEMALE, Target Tissue: Type of Lesion: SKIN: PAPILLOMA, Dose [Carcinogen]: 200 NMOL IN 0.2 ML ACETONE APPLIED TO BACK ONCE", "result": "75%, 59%, 21%, not calculated"},
      {"measurement": "tumour outcome (control, treated, inhibition, significance)", "setting": "Carcinogen: BENZO[A]PYRENE, 50-32-8, 44000 NMOL IN 0.2 ML ACETONE APPLIED TO BACK ONCE 5 MIN PRIOR TO CARCINOGEN DOSE (STUDY DURATION: 26 WK), Route [Inhibitor]: DERMAL, Species: MOUSE, Strain/Sex: SENCAR/FEMALE, Target Tissue: Type of Lesion: SKIN: PAPILLOMA, Dose [Carcinogen]: 200 NMOL IN 0.2 ML ACETONE APPLIED TO BACK ONCE.", "result": "100%, 38%, 62%, not calculated"},
      {"measurement": "tumour outcome (control, treated, inhibition, significance)", "setting": "Carcinogen: N-METHYL-N'-NITRO-N-NITROSOGUANIDINE, 70-25-7, 22000 NMOL IN 0.2 ML ACETONE APPLIED TO BACK ONCE 5 MIN PRIOR TO CARCINOGEN DOSE (STUDY DURATION: 20 WK), Route [Inhibitor]: DERMAL, Species: MOUSE, Strain/Sex: SENCAR/FEMALE, Target Tissue: Type of Lesion: SKIN: PAPILLOMA, Dose [Carcinogen]: 2500 NMOL IN 0.2 ML ACETONE APPLIED TO BACK ONCE.", "result": "78%, 79%, -1%, not calculated"}
    ]},
    {"smiles": "COc1ccc([Se])cc1", "values": [
      {"measurement": "tumour outcome (control, treated, inhibition, significance)", "setting": "Carcinogen: AZOXYMETHANE, 25843-45-2, 50 PPM IN HIGH-FAT DIET BEGINNING 2 WK PRIOR TO CARCINOGEN AND CONTINUING UNTIL 2 WK POST CARCINOGEN (STUDY DURATION:, Route [Inhibitor]: ORAL, Species: RAT, Strain/Sex: F344/FEMALE, Target Tissue: Type of Lesion: COLON: ADENOMA, ADENOCARCINOMA, Dose [Carcinogen]: 15 MG/KG IN NORMAL SALINE 1/WK FOR 3 WK, Promoter: NONE USED", "result": "27/29 (93%), 15/31 (48%), 48%, p<0.05"},
      {"measurement": "tumour outcome (control, treated, inhibition, significance)", "setting": "Carcinogen: AZOXYMETHANE, 25843-45-2, 50 PPM IN HIGH-FAT DIET BEGINNING 2 WK PRIOR TO CARCINOGEN AND CONTINUING UNTIL 2 WK POST CARCINOGEN (STUDY DURATION:, Route [Inhibitor]: ORAL, Species: RAT, Strain/Sex: F344/FEMALE, Target Tissue: Type of Lesion: KIDNEY: ADENOMA, ADENOCARCINOMA, NEPHROBLASTOMA, Dose [Carcinogen]: 15 MG/KG IN NORMAL SALINE 1/WK FOR 3 WK, Promoter: NONE USED", "result": "15/29 (52%), 8/31 (26%), 50%, p<.05"},
      {"measurement": "tumour outcome (control, treated, inhibition, significance)", "setting": "Carcinogen: AZOXYMETHANE, 25843-45-2, 50 PPM IN HIGH-FAT DIET BEGINNING 2 WK PRIOR TO CARCINOGEN AND CONTINUING UNTIL 2 WK POST CARCINOGEN (STUDY DURATION:, Route [Inhibitor]: ORAL, Species: RAT, Strain/Sex: F344/FEMALE, Target Tissue: Type of Lesion: SMALL INTESTINE: ADENOMA, ADENOCARCINOMA, Dose [Carcinogen]: 15 MG/KG IN NORMAL SALINE 1/WK FOR 3 WK, Promoter: NONE USED", "result": "3/29 (10%), 5/31 (16%), -60%, not significant"}
    ]}
  ]
}
